Data on 19 molecules can be found in patent US20060035884A1, “N-cyclic sulfonamido inhibitors of gamma secretase” (Elan Pharmaceuticals, Inc., priority 2004, published 2006).

As a reminder, the pIC50 is the IC50 on a negative log10 scale, so that one unit is a factor of ten.

pIC50: −log10 of the molar value. Some results are limits rather than exact numbers.

In this assay the test system is gamma secretase cleavage of NotchδE (constitutively active rat Notch1 construct ZEDN1). Kind of assay: Notch signaling reporter gene assay (4xwtCBF1 Luciferase co-transfected with NotchδE) for selective inhibitors of gamma secretase. The class given is cell-based. The conditions noted are these: assay not given, it follows the Notch signaling assay section. From the text: Due to the importance of Notch signaling in cell fate determination, and tissue differentiation during both development and in the adult, inhibition of Notch signaling by gamma secretase inhibitors is postulated to be a limiting factor in their therapeutic utility. […] Lindsell, O. Bogler, D. Hayward and G. Weinmaster (1996). “Notch signaling inhibits muscle cell differentiation through a CBF1-independent pathway.” Development 122(12): 3765-73 in combination with the CBF1 repressible Luciferase reporter gene 4xwtCBF1Luc (Hsieh, J. J., T. Henkel, P. Salmon, E. Robey, M. G. Peterson and S. D. Hayward (1996). “Truncated mammalian Notch1 activates CBF1/RBPJk-repressed genes by a mechanism resembling that of Epstein-Barr virus EBNA2. ” Mol Cell Biol 16(3): 952-9).
When 4xwtCBF1 Luciferase is co-transfected with NotchδE (ZEDN1), gamma-secretase cleavage of NotchδE releases the Notch intracellular domain (NICD), which translocates to the nucleus and de-represses CBF1 mediated transcriptional repression, leading to transcription of the Luciferase reporter gene. Luciferase activity is easily assayed in cell extracts using commercially available kits. The activity of the reporter gene is directly correlated with gamma secretase cleavage of NotchδE, and as such, a reduction in Luciferase activity provides a convenient measure of inhibition of gamma secretase cleavage of NotchδE.
(In general: Reporter assays use an easily measured gene product as a stand-in for the process of interest.)
Take `O=S(=O)(c1ccc(Cl)cc1)N1CCCCCC1` [Compound 43, 1-(4-Chloro-benzenesulfonyl)-azepane]: the pIC50 is 5.00 to 6.00.

For `CC1CCC(C)N1S(=O)(=O)c1ccc(Cl)cc1` (stereo not shown) [Compound 124, 1-(4-Chloro-benzenesulfonyl)-2,5-dimethyl-pyrrolidine], the pIC50 was 5.00 to 6.00.

As for `CC1CCCCN1S(=O)(=O)c1ccc(Cl)cc1` (stereo not shown) [Compound 48, 1-(4-Chloro-benzenesulfonyl)-2-methyl-piperidine], the pIC50 was 5.00 to 6.00.

As to `O=S(=O)(c1ccc(Cl)cc1)N1CCCCC1c1cccnc1` (stereo not shown) [Compound 1, 1-(4-Chloro-benzenesulfonyl)-1,2,3,4,5,6-hexahydro-[2,3′]bipyridinyl], the pIC50 is 5.00 to 6.00.

As for `O=C(NCc1ccccc1)C1Cc2ccccc2N1S(=O)(=O)c1ccc(Cl)cc1` (stereo not shown) [Compound 12, 1-(4-Chloro-benzenesulfonyl)-2,3-dihydro-1H-indole-2-carboxylic acid benzylamide], the pIC50 is 5.00 to 6.00.

As for `CC1(c2ccccc2)CCCN(S(=O)(=O)c2ccc(Cl)cc2)C1` (stereo not shown) [Compound 74, 1-(4-Chloro-benzenesulfonyl)-3-methyl-3-phenyl-piperidine], the negative logarithm of the IC50 (pIC50) was < 5.00.

On to `CC1CCCN(S(=O)(=O)c2ccc(Cl)cc2)C1` (stereo not shown) [Compound 54, 1-(4-Chloro-benzenesulfonyl)-3-methyl-piperidine], for which the pIC50 is 5.00 to 6.00.

Turning to `O=S(=O)(c1ccc(Cl)cc1)N1CCC(Br)CC1` [Compound 56, 4-Bromo-1-(4-chloro-benzenesulfonyl)-piperidine], the pIC50 is < 5.00.

As to `O=C(Nc1ccccc1)C1Cc2ccccc2N1S(=O)(=O)c1ccc(Cl)cc1` (stereo not shown) [Compound 2, 1-(4-Chloro-benzenesulfonyl)-2,3-dihydro-1H-indole-2-carboxylic acid phenylamide], the negative-log IC50 (pIC50) was 5.00 to 6.00.

As for `CCOC(=O)C1CCCN(S(=O)(=O)c2ccc(Cl)cc2)C1` (stereo not shown) [Compound 65, 1-(4-Chloro-benzenesulfonyl)-piperidine-3-carboxylic acid ethyl ester], the negative-log IC50 (pIC50) is < 5.00.

For the molecule `C[C@@H]1CCC[C@H](C)N1S(=O)(=O)c1ccc(Cl)cc1` [Compound 45, (2R,6S)-1-[(4-chlorophenyl)sulfonyl]-2,6-dimethylpiperidine], the negative-log IC50 (pIC50) was 6.00 to 7.00.

Regarding `CC1CC(C)CN(S(=O)(=O)c2ccc(Cl)cc2)C1` (stereo not shown) [Compound 51, 1-(4-Chloro-benzenesulfonyl)-3,5-dimethyl-piperidine], the pIC50 was 5.00 to 6.00.

Consider `CC1C=CC(C)N1S(=O)(=O)c1ccc(Cl)cc1` (stereo not shown) [Compound 149, 1-(4-Chloro-benzenesulfonyl)-2,5-dimethyl-2,5-dihydro-1H-pyrrole], for which the pIC50 is 5.00 to 6.00.

In the case of `O=S(=O)(c1ccc(Cl)cc1)N1CCCN2CCCN=C21` [Compound 138, 1-(4-Chloro-benzenesulfonyl)-1,3,4,6,7,8-hexahydro-2H-pyrimido[1,2-a]pyrimidine], the pIC50 is < 5.00.

`CCCCNC(=O)[C@H]1CSC(c2ccc(OC)c(OC)c2)N1S(=O)(=O)c1ccc(Cl)cc1` (stereo partly drawn) [Compound 139, (4S)-N-butyl-3-[(4-chlorophenyl)sulfonyl]-2-(3,4-dimethoxyphenyl)-1,3-thiazolidine-4-carboxamide]: the negative logarithm of the IC50 (pIC50) is < 5.00.

With `O=S(=O)(c1ccc(Cl)cc1)N1CCCC2CCCCC21` (stereo not shown) [Compound 9, 1-(4-Chloro-benzenesulfonyl)-decahydro-quinoline], the pIC50 is 5.00 to 6.00.

Consider `CC1CCCC(C)N1S(=O)(=O)c1ccc(Cl)cc1` (stereo not shown) [Compound 47, 1-(4-Chloro-benzenesulfonyl)-2,6-dimethyl-piperidine], for which the negative logarithm of the IC50 (pIC50) is 6.00 to 7.00.

Regarding `CC1CCc2cc(F)ccc2N1S(=O)(=O)c1ccc(Cl)cc1` (stereo not shown) [Compound 13, 1-(4-Chloro-benzenesulfonyl)-6-fluoro-2-methyl-1,2,3,4-tetrahydro-quinoline], the negative logarithm of the IC50 (pIC50) was 5.00 to 6.00.

For `CCC1CCCCN1S(=O)(=O)c1ccc(Cl)cc1` (stereo not shown) [Compound 46, 1-(4-Chloro-benzenesulfonyl)-2-ethyl-piperidine], the pIC50 was 6.00 to 7.00.
